# Measured values as given in PubChem BioAssay (NCI).
# Values joined by “and” are separate entries in the source; they are usually repeats but may differ in a detail not shown here. Identical values can stand only once.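 Step 1: Grow cells in 96-well plates. Step 2: Expose to compound for 48 hours at 5 concentrations. Step 3: Interpolate endpoints linearly; if unreached, use highest concentration. GI50 marks 50% less growth. TGI denotes the concentration required for complete inhibition of growth.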
# How the values were obtained:
# Assay in all cases: NCI-60 cell line screen, 48 h
# [1] = system: HCT-116 colon
# [2] = system: BT-549 breast
# [3] = system: NCI/ADR-RES ovarian
# [4] = system: SR leukemia
# [5] = system: EKVX NSCLC
# [6] = system: SN12C renal
# [7] = system: HS 578T breast
# [8] = system: HCC-2998 colon
# [9] = system: MDA-MB-231 breast
# [10] = system: CCRF-CEM leukemia
SMILES,GI50 [1],TGI [1] [µM],GI50 [2] [µM],TGI [2] [µM],GI50 [3],TGI [3],GI50 [4],TGI [4] [µM],GI50 [5] [µM],TGI [5] [µM],GI50 [6] [µM],TGI [6] [µM],GI50 [7],TGI [7] [µM],GI50 [8],TGI [8] [µM],GI50 [9],TGI [9] [µM],TGI [10] [µM],GI50 [10]
O=[N+]([O-])c1cccc(-c2nc(-c3ccc(Cl)cc3Cl)cn2-c2ccccc2)c1,0.855 µM,2.02,0.0695,> 22.1,1.56 µM,15.6 µM,1.24 µM,> 33.3,0.56,2.5,1.19,> 7.91,0.428 µM,1.15,2.99 µM,> 17.6,1.93 µM,> 20.5,> 18.7,–
CC(C)c1ccc(C2NC(=S)NC3=C2c2ccccc2C3=O)cc1 (stereo not given),–,> 58.4,–,31.6,–,33.3 µM,–,30.6,–,> 58.6,–,> 61.4,–,42.1,–,> 51.7,–,31,> 68,–
O=C1/C=C/[C@@H](O)[C@@H]2C[C@@H](O)C[C@H]2/C=C/CCC[C@H](CCc2ccc3ncccc3c2)O1,0.245 µM,0.693,0.402,16.2,0.396 µM,9.05 µM,0.296 µM,6.5,0.289,> 64.9,0.334,> 100,1.23 µM,> 100,0.252 µM,4.99,0.167 µM,0.373,8.4,0.306 µM
C=C1c2ccccc2C(=O)c2c1c1c(C(=O)OC)c(OC(=O)OCc3ccc([N+](=O)[O-])cc3)ccc1n2Cc1ccccc1,4.48 µM,20.4,3.21,9.48,3.46 µM,15 µM,2.59 µM,> 100,33.6,> 100,11,42.6,4.69 µM,> 100,16.7 µM,39,18.3 µM,65.6,6.83,1.78 µM
COCCOCCOCc1n(Cc2ccc3ccccc3c2)c2ccccc2[n+]1Cc1ccc2ccccc2c1,0.385 µM,1.65,0.366,1.53,15.1 µM,44.3 µM,0.36 µM,1.6,1.04,2.68,0.372,1.46,1.14 µM,2.96,0.56 µM,2.06,0.38 µM,1.64,2.29,0.488 µM
C/C=C/C/C=C/[C@H](C)C[C@H](O)[C@@H]1C[C@@H]2O[C@H]2/C=C/[C@@H]2OC(C)(C)O[C@H]2/C=C/C[C@H](C)CC(=O)O1,8.85 µM,> 100,16.3,> 100,3.28 µM,> 100 µM,8.08 µM,> 100,21,> 100,5.23,> 100,5.22 µM,> 100,> 100 µM,> 100,36.1 µM,> 100,56.4,2.78 µM
COc1cc(Cl)cc(-c2nn(-c3cccc(NC(=O)Nc4cccc(C(F)(F)F)c4)c3)cc2-c2ccncc2)c1,0.754 µM,7.61,2.22,5.6,1.65 µM,7.81 µM,1.14 µM,4.39,–,–,2.06,18.5,4.06 µM,> 100,3.47 µM,14,1.59 µM,4.91,5.36,1.2 µM
CO[C@@H]1CCN(c2nccc(Nc3cc4c(C(C)C)ccc(N5CC(CS(C)(=O)=O)[C@H]5C)c4cn3)n2)C[C@@H]1F (stereo not given in full),3.26 µM,> 100,4.55,35.4,2.81 µM,9.74 µM,2.87 µM,32.7,1.21,> 100,3.35,> 100,4.26 µM,41.5,4.55 µM,36,8.77 µM,> 100,> 100,4.55 µM
Nc1c(C(=O)Nc2ccccn2)sc2nc3c(cc12)C(O)CCC3 (stereo not given),1.72 µM,> 50,3.47,> 50,1.83 µM,> 50 µM,0.179 µM,> 50,3.29,> 50,2.57,> 50,2.07 µM,> 50,1.85 µM,> 50,18.3 µM,> 50,> 50,0.906 µM
CCOC(=O)Nc1nc2ccccc2[nH]1,5.34 µM and 4.52 µM,> 100,6.03,> 100,3.55 µM and 3.47 µM,35.3 µM and > 25.9 µM,2.64 µM and 1.1 µM,> 100,> 24,> 100,–,> 100,4.3 µM and 3.48 µM,> 100,19.8 µM and 95.3 µM,> 100,12.9 µM and 19.3 µM,> 100,> 100,3.6 µM and 4.41 µM
COc1cccc(-c2nn(-c3ccccc3)cc2-c2ccnc(NCCCNC(=O)c3cccc(C(F)(F)F)c3)c2)c1,3.81 µM,16.1,2.84,9,3.54 µM,16.8 µM,2.1 µM,8.02,5.01,36.2,6.06,38.5,5.6 µM,36.9,3.96 µM,18.2,3.86 µM,25.7,> 100,6.11 µM
COc1cccc(/C=C/c2nc3c(cnn3-c3ccccc3)c(=O)[nH]2)c1,12 µM,> 100,> 72.9,> 100,> 33.7 µM,> 100 µM,–,> 100,65.8,> 100,> 100,> 100,13.7 µM,> 100,> 100 µM,> 100,50 µM,> 100,> 100,> 100 µM
c1ccc(CN2CCc3[nH]c4ccccc4c3C2)cc1,–,43.6,–,> 100,–,> 63.3 µM,–,> 76.6,–,> 86.8,–,> 78.7,–,79.9,–,30.1,–,48.9,> 82.6,–
C=C1C(=O)OC2C1C(OC(=O)/C(C)=C/C)CC(O)(CCl)C1C(O)C=C(C)C21O (stereo not given),–,18.9,–,23.4,–,55.6 µM,–,29.2,–,29.9,–,29.4,–,> 100,–,25.6,–,30.9,> 36.8,–
N#Cc1ccc(-c2c(-c3ncn[nH]3)sc(N3CCOCC3)c2C#N)c(F)c1,0.553 µM,37.6,3.84,39.2,3.19 µM,> 100 µM,1.88 µM,19.8,–,–,0.835,> 100,0.381 µM,4.85,1.08 µM,17.2,3.28 µM,25.7,> 100,3.88 µM
COc1ccc(C(C)c2cc(OC)c(OC)c(OC)c2)cc1 (stereo not given),–,–,0.223,> 50,0.0574 µM,> 50 µM,0.0303 µM,> 50,0.373,> 50,0.546,> 50,0.244 µM,> 50,0.21 µM,> 50,0.341 µM,> 50,> 50,0.182 µM
C[C@]12CC[C@@H]3c4ccc(O)cc4CC[C@H]3[C@@H]1CC[C@@H]2NS(=O)(=O)c1ccc(Br)cc1,2.29 µM,5.16,2.27,4.72,2.81 µM,8.79 µM,3.37 µM,39.3,–,–,1.79,3.5,2.05 µM,6.15,3.21 µM,10.5,2.01 µM,4.62,> 100,3.14 µM
O=C(Nc1cccc(-n2cc(-c3ccncc3)c(-c3ccc(O)c(Cl)c3)n2)c1)c1ccc2c(c1)OCCO2,5.44 µM,> 100,4.92,> 100,5.7 µM,> 100 µM,2.46 µM,> 100,–,–,55.7,> 100,6.01 µM,> 100,> 100 µM,> 100,2.92 µM,> 100,> 100,3.75 µM
COc1ccc(/C(C)=N/NC(=O)CSc2nc3ccccc3c(=O)n2CCc2ccc(S(N)(=O)=O)cc2)cc1,–,–,1.66,3.74,11.7 µM,> 100 µM,2.52 µM,> 100,2.85,12.8,1.89,3.75,2.24 µM,6.2,9.26 µM,28.6,1.87 µM,3.88,> 100,4.44 µM
